# According to ChEMBL document CHEMBL2016507, “Prospective acetylcholinesterase inhibitory activity of indole and its analogs” (Bioorg Med Chem Lett, 2012):
# Legend:
# Acetylcholinesterase [1] = biological target: T1, Acetylcholinesterase (Homo sapiens, UniProt P22303); assay: Inhibition of AChE by Ellman's method
# [2] = biological target: Acetylcholinesterase (Electrophorus electricus) (UniProt O42275); assay: Inhibition of electric eel AChE using acetylcholine iodide as substrate at 6.2 X 10^-4 M measured every 5 sec for 2 mins by Ellman's method
# Acetylcholinesterase [3] = biological target: Acetylcholinesterase (Electrophorus electricus, UniProt O42275); assay: Inhibition of electric eel AChE using acetylcholine iodide as substrate measured every 5 sec for 2 mins by Ellman's method
# Acetylcholinesterase [4] = biological target: T1, Acetylcholinesterase; assay: Inhibition of human AChE by Ellman's method
# Acetylcholinesterase (Electrophorus electricus, UniProt O42275), sequence (O42275 whole entry): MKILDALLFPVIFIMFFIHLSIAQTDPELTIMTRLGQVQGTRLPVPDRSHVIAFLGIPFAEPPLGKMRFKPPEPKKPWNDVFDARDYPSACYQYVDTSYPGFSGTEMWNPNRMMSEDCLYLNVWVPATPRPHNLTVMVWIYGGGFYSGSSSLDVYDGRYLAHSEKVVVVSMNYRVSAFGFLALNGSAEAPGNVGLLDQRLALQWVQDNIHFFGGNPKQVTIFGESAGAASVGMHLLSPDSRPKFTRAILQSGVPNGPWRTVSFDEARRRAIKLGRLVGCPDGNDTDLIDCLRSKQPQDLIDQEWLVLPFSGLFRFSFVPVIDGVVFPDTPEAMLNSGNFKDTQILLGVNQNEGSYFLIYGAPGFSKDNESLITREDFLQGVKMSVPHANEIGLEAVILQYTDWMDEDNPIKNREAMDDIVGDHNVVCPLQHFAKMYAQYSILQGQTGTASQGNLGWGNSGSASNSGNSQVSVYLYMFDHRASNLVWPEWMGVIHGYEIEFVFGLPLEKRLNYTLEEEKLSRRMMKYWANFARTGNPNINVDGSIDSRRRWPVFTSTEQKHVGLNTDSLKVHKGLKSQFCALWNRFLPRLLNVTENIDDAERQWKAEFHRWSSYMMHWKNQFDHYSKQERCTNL
# Acetylcholinesterase (Electrophorus electricus), sequence (O42275 24-633 limits assumed): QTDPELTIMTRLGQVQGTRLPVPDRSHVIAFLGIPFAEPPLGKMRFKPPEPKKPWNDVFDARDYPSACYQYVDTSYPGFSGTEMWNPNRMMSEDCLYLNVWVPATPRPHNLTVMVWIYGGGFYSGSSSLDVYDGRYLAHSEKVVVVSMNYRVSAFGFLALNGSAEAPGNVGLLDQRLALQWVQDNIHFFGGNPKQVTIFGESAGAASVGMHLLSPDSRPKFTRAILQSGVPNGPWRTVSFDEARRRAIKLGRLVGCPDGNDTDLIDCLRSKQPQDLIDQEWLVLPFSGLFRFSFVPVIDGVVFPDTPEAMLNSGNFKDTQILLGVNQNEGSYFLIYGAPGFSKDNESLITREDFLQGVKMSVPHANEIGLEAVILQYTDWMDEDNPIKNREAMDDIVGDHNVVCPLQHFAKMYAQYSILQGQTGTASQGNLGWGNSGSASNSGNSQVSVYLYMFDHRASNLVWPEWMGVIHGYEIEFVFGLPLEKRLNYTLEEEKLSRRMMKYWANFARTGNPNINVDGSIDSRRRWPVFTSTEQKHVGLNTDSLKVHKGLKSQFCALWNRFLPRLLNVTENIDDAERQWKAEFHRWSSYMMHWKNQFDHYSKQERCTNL
# T1 sequence (P22303 whole entry): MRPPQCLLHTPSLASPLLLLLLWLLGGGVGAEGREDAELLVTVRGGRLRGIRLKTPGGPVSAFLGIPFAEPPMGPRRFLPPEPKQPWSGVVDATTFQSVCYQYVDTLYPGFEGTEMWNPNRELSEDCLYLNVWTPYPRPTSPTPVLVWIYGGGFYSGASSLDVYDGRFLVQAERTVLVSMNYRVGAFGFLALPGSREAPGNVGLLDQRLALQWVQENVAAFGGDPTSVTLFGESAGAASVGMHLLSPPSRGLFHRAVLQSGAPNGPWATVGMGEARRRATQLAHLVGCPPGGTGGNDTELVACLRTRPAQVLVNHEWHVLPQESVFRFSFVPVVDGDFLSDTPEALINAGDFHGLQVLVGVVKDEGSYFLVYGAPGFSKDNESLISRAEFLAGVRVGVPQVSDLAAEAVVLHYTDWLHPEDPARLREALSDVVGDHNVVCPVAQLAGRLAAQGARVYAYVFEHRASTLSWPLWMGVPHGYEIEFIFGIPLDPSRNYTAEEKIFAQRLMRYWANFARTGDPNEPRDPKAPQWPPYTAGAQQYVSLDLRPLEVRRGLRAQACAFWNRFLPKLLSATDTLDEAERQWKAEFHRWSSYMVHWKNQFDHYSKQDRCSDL
Compound,IC50 (Acetylcholinesterase [3]),other results
CC[C@H]1C[C@@H]2CN3CCc4c([nH]c5cc([C@H]6C[C@H]7C(C(=O)OC)[C@H](Cc8c6[nH]c6ccccc86)N(C)C[C@H]7CC)ccc45)[C@](C(=O)OC)(C2)[C@H]13 (stereo partly drawn),,IC50 (Acetylcholinesterase [1]): 0.071 µM
O=C(O)c1cccc2cc[nH]c12,,inhibition [2]: 23.4%
Cc1nccc2c1[nH]c1ccccc12 [HARMAN],20.9 µM,
COc1ccc2c3c([nH]c2c1)C(C)=NCC3 [HARMALINE],4.9 µM,IC50 (Acetylcholinesterase [4]): 23.7 µM
O=C(O)c1ccc2[nH]ccc2c1,,inhibition [2]: 29.1%
O=C(O)c1ccc2cc[nH]c2c1,,inhibition [2]: 28.5%
COc1ccc2[nH]c3c(c2c1)CCNC3,227 µM,
Cc1nccc2c1[nH]c1cc(O)ccc12,8.02 µM,
COc1ccc2c(ccc[n+]2C)c1,7.67 µM,IC50 (Acetylcholinesterase [4]): 49.7 µM
c1ccc2c3c([nH]c2c1)CNCC3 [TRYPTOLINE],97.1 µM,
O=C(O)c1cccc2[nH]ccc12,,inhibition [2]: 36.8%
CC[C@H]1C[C@@H]2C[C@H]3c4[nH]c5cc([C@@H]6C[C@H]7C(C(=O)OC)[C@@H](Cc8c6[nH]c6ccccc86)N(C)C[C@H]7CC)ccc5c4CCN(C2)[C@@H]13 (stereo partly drawn),,IC50 (Acetylcholinesterase [1]): 0.227 µM
COc1ccc2c(ccc[n+]2Cc2ccccc2)c1,2.46 µM,IC50 (Acetylcholinesterase [4]): 5.29 µM
CC1=NCCc2c1[nH]c1cc(O)ccc21 [HARMALOL],11.3 µM,
COc1ccc2c(c1)[nH]c1c(C)nccc12 [HARMINE],22.9 µM,
